Entries after “also recorded” stand apart in the source; their conditions may differ.
Columns and labels:
[1] = UPE count method (in vitro), linoleic acid mixture irradiated with blue light or UVA; settings: for blue light oxidation-inhibiting effect (rate of change in blue light-induced UPE): 5 wt % aqueous solution of candidate in linoleic acid mixture, blue light 430 nm LED 6 mW/cm^2, 10 minutes, UPE integrated for 300 seconds; for inhibiting effect against blue light oxidation compared with inhibiting effect against oxidation by UVA (UPE): linoleic acid mixture, blue light 430 nm vs UVA 300 to 400 nm
Description: The candidate substances listed in Table 1 were added to ultrapure water to prepare 5 wt % aqueous solutions as samples.
The samples were prepared by mixing the substances in the following compositions with linoleic acid and oleic acid as biological components. As a control, ultrapure water was used instead of a 5% aqueous solution of the candidate substance.
A 2 mL portion of the sample prepared by the method described above was added to a plastic container and irradiated with 6 mW/cm^2 blue light (430 nm LED, CL-H1-430-9-1, Asahi Spectra Co., Ltd.) using an LED light source (CL-1501, Asahi Spectra Co., Ltd.), for a period of 10 minutes. The experiment was conducted while shielded, to exclude the effects of light of other wavelengths. For the control, ultrapure water was added instead of the starting material aqueous solution.
The irradiated sample was transferred to a quartz glass container and set in the black box of a photon counter (Tohoku Electronic Industrial Co.). Photon counting of UPE was initiated one minute after irradiation was complete. UPE was detected by a built-in photomultiplier tube (PMT, R2257P, Hamamatsu Photonics, K.K.) in the photon counter, with measurement being conducted while shielded.
The integrated value of UPE intensity for 300 seconds after the start of UPE measurement was determined and the rate of change in UPE was calculated by formula 2, to evaluate the oxidative stress inhibiting effect.
Rate of change in UPE=(UPE intensity of material added sample−UPE intensity of control sample (non-irradiated))−(UPE intensity of control sample−UPE intensity of control sample (non-irradiated)) Formula 2: […]

[2] = DPPH radical scavenging rate (DPPH Antioxidant Assay Kit); settings: 5 wt %, 1 wt % and 0.2 wt % aqueous solutions; 30 minutes at 25° C.; absorbance at 517 nm
From the text: Methods for measuring oxidation inhibiting effects by radical scavenging rate evaluation are known. The present inventors therefore examined oxidation inhibiting effects of the aforementioned candidate substances at different concentrations, by the following procedure using a DPPH Antioxidant Assay Kit (Dojindo Laboratories).
The candidate substances of Example 1 were used as 5 wt %, 1 wt % and 0.2 wt % aqueous solutions. Blank 1, Blank 2, Sample and Sample Blank Solution listed in Table 3 were prepared by the manufacturer's protocol described in general below, and the radical scavenging rates were calculated.
• 1. Each candidate substance was loaded into a 96 well plate as a 5 wt %, 1 wt % or 0.2 wt % aqueous solution. • 2. Water was added to Blank 1 and Blank 2 at 20 μl each. • 3. Assay Buffer was added at 80 μl to each well. • 4. After adding 100 μl of ethanol to Blank 2 and the Sample blank, it was thoroughly mixed by pipetting. • After adding 100 μl of DPPH working solution to the sample and Blank1, it was thoroughly mixed by pipetting. • 6. The plate was incubated for 30 minutes at 25° C. in a dark environment. • 7. The absorbance at 517 nm was measured with a plate reader (Spectramax 250, Molecular Devices). • 8. The radical scavenging rate (%) of each sample was calculated by the following formula 3.
Radical scavenging rate (%)=[…]×100 Formula 3:
(ACS=Blank1−Blank2, AS=Sample−Sample Blank)

[3] = tested on: human skin tissue; experiment: Measurement of oxidative stress by UPE imaging on human skin tissue; settings: 20 μL of 5% aqueous solution on stratum corneum side, 40 minutes; blue light 430 nm 6 mW/cm^2, 10 minutes
Description: A 20 μL aqueous solution of 5% hypotaurine was applied to the center of the stratum corneum side of human skin tissue (KAC Co., dorsal region), and allowed to stand for 40 minutes while shielded.
After irradiation with blue light (430 nm LED, 6 mW/cm^2) for 10 minutes, the hypotaurine aqueous solution was wiped off and immediately observed by UPE imaging using a high-sensitivity cooled CCD camera (850S CCD42-40, Spectral Instruments Inc.), while shielded (photographing time: 10 minutes).

[4] = UPE count method (in vitro), linoleic acid mixture irradiated with blue light or UVA; settings: 5 wt % aqueous solution in linoleic acid mixture; UVA lamp 300 to 400 nm 3.5 mW/cm^2

Compound | blue light oxidation-inhibiting effect (rate of change in blue light-induced UPE) [1] | blue light oxidation-inhibiting effect (rate of change in blue light-induced UPE) ([1]; listed as cysteine) | DPPH radical scavenging power (radical scavenging rate) [2] | inhibiting effect against blue light oxidation compared with inhibiting effect against oxidation by UVA (UPE) [1] | UPE intensity after blue light irradiation (UPE imaging) [3] | blue light oxidation-inhibiting effect (rate of change in blue light-induced UPE) ([1]; listed as ascorbic acid glucoside) | UV oxidation inhibiting effect (rate of change in UV light-induced UPE) [4]
N[C@@H](CS)C(=O)O [L-cysteine, L-Cysteine, reference compound] | not found to have significant blue light oxidation-inhibiting effects | little of the inhibiting effect against blue light oxidation | high radical scavenging power | – | – | – | –
NCCS(=O)(O)=S [thiotaurine, Thiotaurine] | high inhibiting effect against blue light oxidation; also recorded: excellent blue light oxidation-inhibiting effects | – | High radical scavenging power was not observed | higher than the inhibiting effect against oxidation by UVA | – | – | –
O=C1O[C@H]([C@@H](O)CO)C(O)=C1O [L(+)-ascorbic acid, L(+)-Ascorbic acid] | high blue light oxidation-inhibiting effect; also recorded: excellent blue light oxidation-inhibiting effects | – | high radical scavenging power | – | – | – | –
NCCS(=O)O [hypotaurine, Hypotaurine] | high inhibiting effect against blue light oxidation; also recorded: excellent blue light oxidation-inhibiting effects | – | high radical scavenging power | higher than the inhibiting effect against oxidation by UVA | lowered | – | –
O=C1O[C@H]([C@@H](O)CO)C(O)=C1O[C@H]1O[C@H](CO)[C@@H](O)[C@H](O)[C@H]1O [L-ascorbic acid glucoside, L-Ascorbic acid glucoside, reference compound] | not found to have significant blue light oxidation-inhibiting effects | – | high radical scavenging power | – | – | little of the blue light oxidation-inhibiting effect | –
CC(C)(CO)[C@@H](O)C(=O)NCCC(=O)NCCSS(=O)(=O)[O-].CC(C)(CO)[C@@H](O)C(=O)NCCC(=O)NCCSS(=O)(=O)[O-].[Ca+2] [calcium pantetheine-S-sulfonate] | high blue light oxidation-inhibiting effect; also recorded: excellent blue light oxidation-inhibiting effects | – | High radical scavenging power was not observed | – | – | – | UV oxidation inhibiting effect was found

Source: US20230414564A1, “BLUE LIGHT OXIDATION INHIBITOR AND SCREENING METHOD FOR SAME” (SHISEIDO COMPANY, LTD., priority 2020, published 2023)
